In patent publication US20090176714A1, “METHOD OF REDUCING THE EFFECTS OF ABeta AND COMPOSITIONS THEREFORE” (priority 2004, published 2009):
No end group written: not given here.

What was measured:
[1] = test system: hippocampal slice cultures; assay: Aβ-induced cell death (EthD-1/calcein AM, % Death) in organotypic hippocampal slice cultures; assay type: cell-based, mouse
Experimental: Pups from C57B6/SJL mice were anaesthetized and decapitated at postnatal day 15. The brain was removed and placed in ice-cold dissecting medium (50% Minimum Essential Medium (Invitrogen, Carlsbad, Calif.), 50% Hank's Balanced Salt Solution (Invitrogen), 25 mM HEPES, and 36 mM glucose). Both hippocampi were dissected under a dissecting microscope and cut at 400 μm on a McIlwain tissue chopper. Slices were separated and placed on filter inserts with a 30 mm diameter and a 0.4 μm filter pore size (Millipore, Billerica, Mass.) held in 6-well culture plates. For the first 3 days, slices were kept in Neurobasal media with B-27 supplement, 1 mM glutamine, and 1% penicillin/streptomycin (Invitrogen). Subsequently, the media was changed every 3 days using media without antibiotics. Organotypic cultures were maintained in a humidified incubator at 37° C. in 5% O2 and 5% CO2 for 14 to 21 days.
(§1) Cell death and viability was determined on live slices using the fluorescent probes from Molecular Probes' Live/Dead Kit. After a 40 minute incubation in calcein AM (1:400) and ethidium homodimer (1:1000) in phosphate buffered saline, slices were visualized at 200× magnification with an inverted Nikon Diaphot 200 microscope using the Bio-Rad MRC-1024 Laser Scanning Confocal system (Hercules, Calif.). Random images of the neuronal fields were captured at the emission spectrum of each probe, and Scion Image software (Frederick, Md.) was used to quantify the number of live and dead cells. At least three areas including a neuronal field were imaged and used to determine the percent death for each slice. The percent death was calculated as the number of EthD-1 positive cells divided by the total number of EthD-1 and calcein AM positive cells.
β-amyloid1-42 and reverse Aβ (Aβ42-1) were obtained from BACHEM (Torrance, Calif.). These polypeptides were dissolved in 0.1% NH3OH at 222 μM. For treatments, Aβ was aggregated at 50 μM in Neurobasal media with B-27 supplement and 1 mM glutamine at 37° C. for 24 hours. Then, the slice culture media was removed, and the slices were treated with 1 mL of 25 μM or 50 μM Aβ, reverse Aβ, or vehicle for 24 hours. Human TTR (Calbiochem) or IGF-2 (Peprotech, Rocky Hill, N.J.) was added to slices together with the Aβ treatment at final concentrations of 3 μM (TTR) or 500 nM (IGF-2). sAPPα was prepared as described previously (Mattson et al., Neuron, 10:243-254 (1993)).
Unless otherwise stated, all sAPPα treatments were performed at 1 nM 48 hours prior to the addition of Aβ. Antibodies against TTR (C-20) or IGF-2 (F-20; 4 μg/mL; Santa Cruz) or sAPPα (6E10; 10 μg/mL; Chemicon) were added to slices together with the sAPPα treatment. Goat IgG (4 μg/mL; Santa Cruz) or mouse IgG1 (10 μg/mL; Chemicon) was added as a control. The 10 amino acid fragment of the carboxyl-terminal region of sAPPα (592-601 of APP695; SEVKMDAEFR; SEQ ID NO:1; Sigma) was added according to the same protocol for sAPPα.
SiRNA's were created based on the mouse mRNA sequences using the Ambion Silencer siRNA Construction Kit (Austin, Tex.). Several siRNA's were created by in vitro transcription for each silenced gene. Transfection was performed for 4 hours at 37° C. prior to vehicle or sAPPα treatment using 25 nM siRNA combined with the polyamines in the Ambion siPORT Amine Transfection Agent. Transfections were performed in Neurobasal media with 1 mM glutamine (Invitrogen). The successful mRNA target sequences are as follows, TTR: 5′-[…]-3′ (SEQ ID NO:16) and 5′-[…]-3′ (SEQ ID NO:17); IGF-2: 5′-AA-GGGGATAGAGATGTGAGAG-3′ (SEQ ID NO:18) and 5′-AAATTATGTGGT-AATTCTGCA-3′ (SEQ ID NO:19); IGF-1R: 5′-[…]-3′ (SEQ ID NO:20) and 5′-[…]-3′ (SEQ ID NO:21).
β-amyloid1-42 and reverse Aβ (Aβ42-1) were obtained from BACHEM (Torrance, Calif.). These peptides were dissolved in 0.1% NH3OH at 222 μM. For treatments, Aβ was aggregated at 50 μM in Neurobasal media with B-27 supplement and 1 mM glutamine at 37° C. for 24 hours. […]

human cortical slices = assay: Aβ-induced cell death (EthD-1/calcein AM) in human organotypic cortical cultures; assay type: cell-based; conditions: for Protection against the Aβ-induced EthD-1 staining: FIG. 6C
Source text: Four patients with intractable epilepsy who had elected to undergo a temporal lobe resection were recruited for this study. […] However, the overlying temporal cortex is normal. The age of the subjects ranged from 20 to 49. Brain tissue was obtained with informed consent from all patients.
Brain tissue was removed in large, intact pieces by electrocautery. Tissue obtained from the temporal cortex was approximately 3 cm×2 cm×1.5-2 cm. Immediately following removal, the tissue was placed in ice-cold Neuregen-I media (Brainbits, Springfield, Ill.), a CO2 independent transport and holding medium, and transported to a tissue culture laboratory. Meninges were removed before cutting the tissue with a scalpel to produce blocks about 0.5-1 cm^3 such that each gyrus was kept as intact as possible and the cortical layers were preserved. As described previously, incisions were made perpendicular to the longitudinal axis of the gyrus and along the white matter (Verwer et al., Exp. Gerontol., 38:167-172 (2003)). A vibratome was used to cut 400 μm thick slices at a plane perpendicular to the longitudinal axis of the gyrus. Thus, all cortical layers and a small amount of white matter were included in a slice. Alternately, small tissue pieces, which were usually obtained from the hippocampus, were cut at 400 μm using a McIlwain tissue chopper. No more than 2 slices were placed on a filter insert with a 30 mm diameter and a 0.4 μm filter pore size (Millipore, Billerica, Mass.) held in 6-well culture plates. For the first 12 hours, slices were kept in 1-1.2 mL Neurobasal media with B-27 supplement, 0.5 mM glutamine, and 1% penicillin/streptomycin (Invitrogen). Subsequently, the media was changed every 2 days using 1 mL of media without antibiotics. Organotypic cultures were maintained in a humidified incubator at 37° C. in 5% O2, 5% CO2, and 90% N for 4 to 28 days.
as §1, with “images” for “images of the neuronal fields”, “areas” for “areas including a neuronal field”
β-amyloid1-42 and reverse Aβ (Aβ42-1) were obtained from BACHEM (Torrance, Calif.). These peptides were dissolved in 0.1% NH3OH at 222 μM. For treatments, Aβ or reverse Aβ was aggregated at 50 μM in Neurobasal media with B-27 supplement and 0.5 mM glutamine at 37° C. for 24 hours. Then, the slice culture media was removed, and the slices were treated with 1 mL of 25 μM or 50 μM Aβ, reverse Aβ, or vehicle for 24 hour. Human TTR (Calbiochem) was added to slices together with the Aβ treatment at final concentrations of 0.03, 0.3, and 3 μM TTR. sAPPα was obtained from Sigma (St. Louis, Mo.). Unless otherwise stated, all sAPPα treatments were performed at 1 nM 48 hours prior to the addition of Aβ. The 10 amino acid fragment of the carboxyl-terminal region of sAPPα (592-601 of APP695; SEVKMDAEFR was added according to the same protocol for sAPPα. Because a variable amount of tissue was obtained from each patient, not all treatments were performed on all patients.

[2] = 48 h prior to 25 μM Aβ (24 h), FIG. 12B, 1 nM, final concentration of 1 mM
[3] = 1 nM 48 hours prior to 25 μM Aβ (24 hours), FIG. 7
[4] = 1 nM 48 h prior to 25 μM Aβ (24 h), FIG. 12A

Substance | Protection against Aβ-induced death (% Death) [1, 2] | Protection against Aβ-induced death (% Death) [1, 3] | other results
(dD)AEF | do not significantly protect | – | –
D(dA)EF | do not significantly protect | – | –
DAE(dF) | do not significantly protect | – | –
EADF-amide (EADF-NH2) [EADF (SEQ ID NO:5)-amide, aspartic acid and glutamic acid switched and an amide group attached to the COOH-terminus] | significantly protects | – | –
EVKMDAEFR [fragment with the serine eliminated] | – | significantly protected | –
R(9)-DAEF (RRRRRRRRRDAEF) [9 arginines added to the NH2-terminal end of the tetrapeptide] | – | – | Protection against Aβ-induced death (% Death) [1, 4]: significantly protected
SEVKMDAE [fragment with both arginine and phenylalanine eliminated] | – | reversed the protection | –
SEVKMDAEF [10 amino acid fragment with the carboxyl arginine eliminated] | – | protection was maintained | –
VKMDAEFR [fragment with the serine and glutamic acid eliminated] | – | significantly protected | –
acetyl-DAEF (Ac-DAEF) [DAEF with the NH2-terminal end acetylated] | – | – | Protection against Aβ-induced death (% Death) [1, 4]: did not protect to the same degree as the unmodified tetrapeptide; Protection against Aβ-induced death (% Death) ([1]; 1 nM 48 h prior to 25 μM Aβ (24 h), FIG. 12A, listed as Acetylated DAEF): significant protection
acetyl-EADF (Ac-EADF) | does not | – | –
insulin-like growth factor 2 [IGF-2] | – | – | Protection against Aβ-induced death (% Death) ([1]; 500 nM added together with Aβ, FIG. 4A): partially protected
transthyretin [TTR] | – | – | Protection against the Aβ-induced EthD-1 staining (human cortical slices; co-treatment with 0.03 μM): not; Protection against the Aβ-induced EthD-1 staining (human cortical slices; co-treatment with 0.3 μM): protected; Protection against the Aβ-induced EthD-1 staining (human cortical slices; co-treatment with 3 μM): protected; Concentrations that protect against Aβ toxicity (human cortical slices; human cortical slices, co-treatment with Aβ): ≥ 0.3 µM; Protection against Aβ-induced death (% Death) ([1]; 3 μM added together with Aβ, FIG. 4A): completely protected
